Experimental data taken from patent US12697315B2, “Treatment for interstitial lung disease” (United Therapeutics Corporation, priority 2020, dated 2026).

What was measured:
[1] = system: patients with interstitial lung disease and pulmonary hypertension; assay: 6-minute walk test, INCREASE; type: in vivo, human
Procedure: We enrolled patients with interstitial lung disease and pulmonary hypertension (documented by right heart catheterization) in a multicenter, randomized, double-blind, placebo-controlled, 16-week trial. Patients were assigned in a 1:1 ratio to receive inhaled treprostinil, administered by means of an ultrasonic, pulsed-delivery nebulizer in up to 12 breaths (total, 72 μg) four times daily, or placebo. The primary efficacy end point was the difference between the two treatment groups in the change in peak 6-minute walk distance from baseline to week 16. Secondary end points included the change in N-terminal pro-B-type natriuretic peptide (NT-proBNP) level at week 16 and the time to clinical worsening.
(§1) The 6-minute walk test was performed and laboratory data were obtained at baseline and at weeks 4, 8, 12, and 16, or at the time of early discontinuation of treprostinil or placebo. Each 6-minute walk test was performed 10 to 60 minutes after the most recent dose of active drug or placebo, which is the time of peak plasma treprostinil exposure. A trough test was performed at week 15 at least 4 hours after the participant received a dose of treprostinil or placebo and at least 24 hours before the week 16 test. Pulse oximetry was performed immediately before, during, and after each 6-minute walk test. Measurement of N-terminal pro-B-type natriuretic peptide (NT-proBNP) levels and pulmonary function tests were performed at baseline and at weeks 8 and 16 (or at early discontinuation) after the patients recovered from the 6-minute walk test. The St. George's Respiratory Questionnaire (SGRQ), a quality-of-life measure, was completed at baseline and week 16 or at the time of early discontinuation.
The primary end point of the trial was the difference between the two groups in the change in peak 6-minute walk distance from baseline to week 16. Secondary efficacy end points were analyzed in the following hierarchical testing order: the change in NT-proBNP level from baseline to week 16, the time to clinical worsening, the change in 6-minute walk distance at peak plasma treprostinil level at week 12, and the change in 6-minute walk distance at trough treprostinil level at week 15. The time to clinical worsening was evaluated from the time of randomization until the patient's withdrawal from the trial and was defined as the time until the occurrence of any one of the following events: hospitalization for a cardiopulmonary indication, a decrease in 6-minute walk distance greater than 15% from baseline that was directly related to the disease under study at two consecutive visits and at least 24 hours apart, death from any cause, or lung transplantation.
For the primary efficacy analysis, the change in 6-minute walk distance was analyzed by mixed-model repeated-measures methods, under the assumption that missing data were missing at random. The model included the change from baseline to peak 6-minute walk distance as the dependent variable, with treatment, week, and treatment-by-week interaction as fixed effects, and the baseline 6-minute walk distance as a covariate. A sensitivity analysis for the primary end point was performed by means of a multiple imputation approach with a multivariate normal imputation model according to the Markov chain Monte Carlo method. The imputation model included treatment group, all scheduled visits, the patient's sex, and the patient's age at randomization. If the result for the primary efficacy end point was significant, secondary efficacy end points were to be evaluated according to a hierarchical testing procedure. Confidence intervals have not been adjusted for multiplicity and can-not be used to infer definitive treatment effects for secondary efficacy end points.

[2] = system: patients with interstitial lung disease and pulmonary hypertension; assay: SpO2 by pulse oximetry around the 6-minute walk test, INCREASE; type: in vivo, human
Procedure: as §1

[3] = vs placebo, listed as Inhaled Treprostinil
[4] = vs placebo, listed as inhaled treprostinil

Compound: CCCCC[C@H](O)CC[C@@H]1[C@H]2Cc3cccc(OCC(=O)O)c3C[C@H]2C[C@H]1O [Inhaled treprostinil, treprostinil]
- Change in peak 6-minute walk distance from baseline to wk 16 ([1]; LS mean ± SE, MMRM): 21.08 ± 5.12 m
- Least-squares mean change in peak 6-minute walk distance from baseline to wk 12 ([1]; mean ± SE): 18.77 ± 4.99 m
- Least-squares mean change in trough 6-minute walk distance from baseline to wk 15 ([1]; mean ± SE): 9.3 ± 5.5 m
- Treatment effect, least-squares mean difference in change in peak 6-minute walk distance, baseline to wk 16 ([1]; vs placebo, MMRM, listed as Inhaled Treprostinil): 31.12 ± 7.25 m
- Treatment effect, least-squares mean difference in change in peak 6-minute walk distance, baseline to wk 16 ([1]; vs placebo, MMRM, listed as inhaled treprostinil): 31.12 m
- Treatment effect, least-squares mean difference in change in peak 6-minute walk distance, baseline to wk 16 ([1]; vs placebo, MMRM, listed as treprostinil): 31.12 m
- Treatment effect, least-squares mean difference in peak 6-minute walk distance, baseline to wk 12 [1, 3]: 31.29 ± 7.07 m
- Treatment effect, least-squares mean difference in trough 6-minute walk distance, baseline to wk 15 [1, 3]: 21.99 ± 7.7 m
- Treatment effect, least-squares mean difference in peak 6-minute walk distance, baseline to wk 12 [1, 4]: 31.29 m
- Treatment effect, least-squares mean difference in trough 6-minute walk distance, baseline to wk 15 [1, 4]: 21.99 m
- between-group difference in change from baseline in peak 6-minute walk distance at week 16 ([1]; vs placebo, multiple imputation, Markov chain Monte Carlo): 30.97 m
- During Walk SpO2 (%), Change from Pre-walk, Median ([2]; Week 16): −17.0%
- During Walk SpO2 (%), Value, Median ([2]; Week 16): 77.0%
- Post-walk SpO2 (%), Change from Pre-walk, Median ([2]; Week 16): −13.0%
- Post-walk SpO2 (%), Value, Median ([2]; Week 16): 83.0%
- Pre-walk SpO2 (%), Value, Median ([2]; Week 16): 95.0%
- During Walk SpO2 (%), Change from Pre-walk, Mean (SD) ([2]; Week 16, n 123): −17.6 (7.01) %
- During Walk SpO2 (%), Value, Mean (SD) ([2]; Week 16, n 123): 76.8 (7.70) %
- Post-walk SpO2 (%), Change from Pre-walk, Mean (SD) ([2]; Week 16, n 128): −12.4 (8.05) %
- Post-walk SpO2 (%), Value, Mean (SD) ([2]; Week 16, n 128): 82.1 (9.24) %
- Pre-walk SpO2 (%), Value, Mean (SD) ([2]; Week 16, n 130): 94.5 (4.35) %
- treatment-related changes in pulse oximetry ([2]; over the trial period): no significant treatment-related changes
